Test results: patent US11931374B2, “Adenosine receptor modulators for the treatment of circadian rhythm disorders” (OXFORD UNIVERSITY INNOVATION LIMITED, priority 2016, dated 2024)
Entries after “also recorded” stand apart in the source; their conditions may differ.

Tests used:
CREB = CREB phosphorylation in U2OS cells; assay type: cell-based
C57Bl/6 mice [1] = test: Phase shifting of circadian activity in response to a light pulse with drug; assay type: in vivo; details: light at CT16
Protocol: Animals were maintained in a 12 h light (white) 12 h dark (grey) cycle and vehicle was administered just before a 30 min 400 lux light pulse (white bar) at time CT 22 (or 10 hours after lights off). All light cues were then removed to allow the animals free running clock to express. A gap in the lines on the day after the light pulse was administered indicates a phase shift.
Animals were maintained in a 12 h light (white) 12 h dark (grey) cycle and IB-MECA (1 mg/kg) was administered just before a 30 min 400 lux light pulse (white bar) at time CT 22 (or 10 hours after lights off).
Animals were housed under a reversed 12:12 LD cycle (400 lux from white LED lamps) with food and water ad libitum. For phase-shifting studies, C57Bl/6 mice were maintained on running wheels in light tight chambers on a 12:12 LD cycle (400 lux from white LED lamps) and injected with drug at the indicated time points. The drugs were formulated in a vehicle consisting of 5% Koliphor-HS15 (Sigma-Aldrich, UK) 5% Cyclodextran (Sigma-Aldrich, UK) in 0.9% saline. […] Where measuring phase-shifting, the mice were then placed in DD and allowed to free run for 14 days in DD, running wheel activity data was collected and analysed on Clocklab (Actimetrics, Wilmette, IL). […]

Per1/2 = test: Sleep deprivation, Per1/2 expression within the SCN; assay type: in vivo; details: sleep deprivation decreases Per1/2 expression
C57Bl/6 mice [2] = test: Re-entrainment in a jet-lag protocol; assay type: in vivo
Protocol: Animals were housed under a reversed 12:12 LD cycle (400 lux from white LED lamps) with food and water ad libitum. For phase-shifting studies, C57Bl/6 mice were maintained on running wheels in light tight chambers on a 12:12 LD cycle (400 lux from white LED lamps) and injected with drug at the indicated time points. The drugs were formulated in a vehicle consisting of 5% Koliphor-HS15 (Sigma-Aldrich, UK) 5% Cyclodextran (Sigma-Aldrich, UK) in 0.9% saline. This vehicle was warmed to 37° C. and the indicated drugs kept at a 100× stock in DMSO and mixed at the appropriate concentration to be administered at approximately 300 ul intraperitoneal injection (n=6 to 10). Where the time point of injection was in the dark, the procedure was conducted under dim red light. Where measuring phase-shifting, the mice were then placed in DD and allowed to free run for 14 days in DD, running wheel activity data was collected and analysed on Clocklab (Actimetrics, Wilmette, IL). […]
Re-entrainment: C57B/6 male mice (80 days or older) were maintained on running wheels in light tight chambers on a 12:12 LD cycle (100 lux from white LED lamps) and injected with drugs as above at ZT6. […] Onset of activity on each day was used to measure phase relative to the LD cycle, data analysed on Clocklab.

Per2 = Per2 mRNA within the SCN after intraperitoneal injection; assay type: in vivo, mice; details: 4 h after intraperitoneal injection
From the text: SCN Tissue Collection: Animals were housed under a 12:12 LD cycle for 2 weeks with food and water ad libitum. Animals then received either a drug injection with a alteration in the light dark cycle as described in the experiment and at set points following drug administration were sacrificed by cervical dislocation. Sham-treated mice not given a light pulse were dissected at each time point. Brains were removed and placed into a brain matrix (Kent Scientific, Torrington CT, USA). Per2::Luc transgenic animals (as reported in Yoo et al, Proc Natl Acad Sci USA. 2004 Apr. 13; 101(15):5339-46) were obtained from Prof Joseph Takahashi, Northwestern University. […]
Total RNA was extracted using the microRNeasy column method (Qiagen, Hilden, Germany). Quality and quantity of RNA were measured using an Agilent Bioanalyzer and a Nanodrop1000 (Thermo Fisher Scientific, Waltham, MA USA), respectively.
RNA samples were prepared as described for microarray hybridisation. cDNA was synthesized with a qScript cDNA synthesis kit (Quanta Biosciences, Gaithersburg, MD), and quantitative PCR (qPCR) was conducted with Sybr green I and an SDS7700 thermal cycler (Applied Biosystems, Foster City, CA). Relative quantification of transcript levels was done as described previously (Peirson et al., Nucleic Acids Res. 2003 Jul. 15; 31(14):e73.). […]

In the case of Nc1nc(-c2ccccc2)c2c(n1)-c1cc(OCCN3CCOCC3)ccc1C2=O [JNJ40255293, 2-amino-8-[2-(4-morpholinyl)ethoxy]-4-phenyl-5H-indeno[1,2-d]pyrimidin-5-one], the CREB phosphorylation (CREB) is reported as “no changes in CREB phosphorylation”, the “phase-shifts in response to light” value (C57Bl/6 mice [1]) is reported as “enhances phase-shifts in response to light at CT16” and the “Per1/2 expression within the SCN” value (Per1/2) is reported as “reversed”. For the same compound, the “re-entrainment (advance of activity onset)” value (C57Bl/6 mice [2]; 5 mg/kg single intraperitoneal injection at ZT6, LD cycle advanced 6 h) was “shifted rapidly; also recorded: advanced entrainment more potently than Tasimelteon, KW6002 (specific A2A antagonist) or KW3902 (specific A1 antagonist)”, the “re-entrainment, dose response” value (C57Bl/6 mice [2]; jet-lag protocol, LD cycle advanced 6 h) was “dose responsively enhanced re-entrainment” and the “Per2 mRNA levels within the SCN” value (Per2) was “increase”.
